Measured values as given in ChEMBL document CHEMBL5620380, “Identification of 5-[5-cyano-1-(pyridin-2-ylmethyl)-1H-indole-3-carboxamido] thiazole-4-carboxylic acid as a promising dual inhibitor of urate transporter 1 and xanthine oxidase” (Eur J Med Chem, 2023).
Calls of active or inactive are those of the source. No cut-off for these calls is given here.

Tests used:
[1] = biological target: T1, Solute carrier family 22 member 12 (Homo sapiens, UniProt Q96S37); test: Inhibition of URAT1 (unknown origin)-mediated 14C uric acid uptake expressed in HEK293 cells using 14C uric acid as substrate at 10 uM by liquid scintillation counting analysis; type: cell-based
T1 sequence (Q96S37 whole entry): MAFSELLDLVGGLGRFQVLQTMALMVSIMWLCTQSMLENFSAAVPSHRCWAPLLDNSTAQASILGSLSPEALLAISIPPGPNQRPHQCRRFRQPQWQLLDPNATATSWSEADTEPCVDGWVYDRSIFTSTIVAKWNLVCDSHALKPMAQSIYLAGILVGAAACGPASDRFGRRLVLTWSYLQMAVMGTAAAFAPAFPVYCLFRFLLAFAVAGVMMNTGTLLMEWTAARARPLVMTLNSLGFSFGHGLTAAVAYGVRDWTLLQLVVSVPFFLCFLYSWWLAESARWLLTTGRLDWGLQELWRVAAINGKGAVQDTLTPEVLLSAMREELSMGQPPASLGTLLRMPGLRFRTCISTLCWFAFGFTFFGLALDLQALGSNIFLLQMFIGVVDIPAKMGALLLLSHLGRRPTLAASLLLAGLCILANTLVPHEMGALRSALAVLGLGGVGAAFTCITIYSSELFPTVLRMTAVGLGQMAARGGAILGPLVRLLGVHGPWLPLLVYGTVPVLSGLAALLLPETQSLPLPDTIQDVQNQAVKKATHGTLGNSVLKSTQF

[2] = biological target: T2, Xanthine dehydrogenase/oxidase (Bos taurus, UniProt P80457); test: Inhibition of bovine XO assessed as inhibition of uric acid production using xanthine as substrate preincubated for 25 mins followed by substrate addition and measured for first 2 mins by spectrophotometric analysis
T2 sequence (P80457 whole entry): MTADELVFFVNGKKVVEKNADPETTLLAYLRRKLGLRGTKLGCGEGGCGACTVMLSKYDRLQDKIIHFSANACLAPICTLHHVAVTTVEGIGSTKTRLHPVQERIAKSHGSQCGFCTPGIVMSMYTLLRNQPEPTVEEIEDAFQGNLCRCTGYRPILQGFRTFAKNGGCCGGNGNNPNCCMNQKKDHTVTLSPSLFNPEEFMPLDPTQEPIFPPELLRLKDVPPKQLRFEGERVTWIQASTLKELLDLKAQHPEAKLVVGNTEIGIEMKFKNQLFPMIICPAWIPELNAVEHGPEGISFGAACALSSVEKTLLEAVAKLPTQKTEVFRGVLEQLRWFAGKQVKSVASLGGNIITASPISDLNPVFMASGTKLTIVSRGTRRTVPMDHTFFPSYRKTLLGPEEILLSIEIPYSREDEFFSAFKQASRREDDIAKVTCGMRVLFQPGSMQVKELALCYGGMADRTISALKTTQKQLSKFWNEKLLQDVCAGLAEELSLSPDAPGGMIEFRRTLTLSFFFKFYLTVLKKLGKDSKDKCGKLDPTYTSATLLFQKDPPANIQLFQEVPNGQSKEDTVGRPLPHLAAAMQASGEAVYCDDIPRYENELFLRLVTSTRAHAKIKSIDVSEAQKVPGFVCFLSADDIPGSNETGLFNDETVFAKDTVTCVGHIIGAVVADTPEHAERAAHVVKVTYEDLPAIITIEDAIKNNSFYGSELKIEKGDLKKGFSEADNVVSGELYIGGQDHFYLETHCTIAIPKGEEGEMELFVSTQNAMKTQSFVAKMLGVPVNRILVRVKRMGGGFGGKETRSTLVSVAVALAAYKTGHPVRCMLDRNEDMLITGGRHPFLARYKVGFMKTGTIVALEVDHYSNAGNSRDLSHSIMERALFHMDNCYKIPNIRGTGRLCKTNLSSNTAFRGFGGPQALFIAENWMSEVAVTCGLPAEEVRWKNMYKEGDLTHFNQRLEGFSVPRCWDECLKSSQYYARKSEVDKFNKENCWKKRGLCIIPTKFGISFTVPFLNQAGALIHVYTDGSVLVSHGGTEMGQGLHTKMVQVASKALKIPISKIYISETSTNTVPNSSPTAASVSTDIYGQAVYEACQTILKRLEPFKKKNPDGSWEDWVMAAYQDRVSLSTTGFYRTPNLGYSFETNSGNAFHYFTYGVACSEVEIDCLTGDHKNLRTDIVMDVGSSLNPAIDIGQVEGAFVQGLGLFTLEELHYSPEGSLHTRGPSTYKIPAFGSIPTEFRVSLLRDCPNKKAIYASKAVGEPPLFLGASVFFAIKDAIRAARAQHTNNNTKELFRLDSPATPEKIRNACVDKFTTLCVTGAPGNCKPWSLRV

[3] = system: Rattus norvegicus; test: Hypouricemic activity against potassium oxonate-induced hyperuricemia Sprague-Dawley rat model assessed as decrease in serum uric acid level at 10 mg/kg, ig administered 1 hr post-potassium oxonate challenge and measured after 1 to 5 hrs; type: functional, organism-based; conditions: time 1-5 hrs
[4] = system: Rattus norvegicus; test: Hypouricemic activity against potassium oxonate-induced hyperuricemia Sprague-Dawley rat model assessed as decrease in AUC of serum uric acid level at 10 mg/kg, ig administered 1 hr post-potassium oxonate challenge and measured after 1 to 5 hrs; type: functional; conditions: po, time 1-5 hrs
[5] = biological target: T2, Xanthine dehydrogenase/oxidase; test: Mixed inhibition of bovine XO assessed as increase in Km with decrease in Vmax using xanthine as substrate by Lineweaver-Burk plot analysis; conditions: cattle
[6] = system: Rattus norvegicus; test: Hypouricemic activity against potassium oxonate-induced hyperuricemia Sprague-Dawley rat model assessed as decrease in serum uric acid level at 10 mg/kg, ig administered 1 hr post-potassium oxonate challenge and measured after 3 hrs; type: functional; conditions: po
[7] = biological target: T2, Xanthine dehydrogenase/oxidase; test: Potency index, ratio of allopurinol IC50 to test compound IC50 for inhibition of bovine XO; conditions: cattle
[8] = biological target: T2, Xanthine dehydrogenase/oxidase; test: Inhibition of bovine XO assessed as inhibition of uric acid production using xanthine as substrate at 10 uM preincubated for 25 mins followed by substrate addition and measured for first 2 mins by spectrophotometric analysis; conditions: cattle, time 27 min

Work on `O=C(O)c1ccccc1NC(=O)c1cn(Cc2ccncc2)c2ccccc12` yielded an inhibition at 10 µM [1] of 68.4%.

With `O=C(O)c1ccccc1NC(=O)c1cn(Cc2cccs2)c2ccccc12` the inhibition at 10 µM [1] was 56.7%.

`O=C(O)c1ccccc1NC(=O)c1c[nH]c2ccccc12` gave an inhibition at 10 µM [1] of 33.2%.

For `O=C(O)c1cccc(NC(=O)c2c[nH]c3ccccc23)c1`, the inhibition at 10 µM [1] was 25.8%.

For `O=C(O)c1ccccc1NC(=O)c1cn(Cc2ncccn2)c2ccccc12`, the inhibition at 10 µM [1] was 49.9%.

`Cc1ccc2c(C(=O)Nc3ccccc3C(=O)O)cn(Cc3ccccn3)c2c1` showed an inhibition at 10 µM [1] of 49.1%.

With `N#Cc1ccc2c(c1)c(C(=O)Nc1cc[nH]c1C(=O)O)cn2Cc1ccccn1` the IC50 [2] was 2670 nM and the inhibition at 10 µM [1] was 51%.

`N#Cc1ccc2c(c1)c(C(=O)Nc1ncc(C(=O)O)s1)cn2Cc1ccccn1` was tested, and the IC50 [2] was 2120 nM and the inhibition at 10 µM [1] was 15.9%.

With `O=C(O)c1ccccc1NC(=O)c1cn(Cc2cccnc2)c2ccccc12` the inhibition at 10 µM [1] was 43.1%.

Molecule `O=C(O)CSc1nnc(Br)n1-c1ccc(C2CC2)c2ccccc12` has an inhibition at 10 µM [1] of 47%.

`O=C(O)c1ccccc1NC(=O)c1cn(Cc2ccccc2)c2ccccc12` was tested, and the inhibition at 10 µM [1] was 41.3%.

`O=C(O)c1ccccc1NC(=O)c1cn(Cc2ccccn2)c2ccc(F)cc12` gave an inhibition at 10 µM [1] of 51.1%.

In the case of `Oc1ncnc2[nH]ncc12`, the Activity [3] is reported as “Active”.

For `O=C(O)c1ccccc1NC(=O)c1cn(Cc2ccccn2)c2cc(F)ccc12`, the inhibition at 10 µM [1] was 51.6%.

Molecule `COc1ccc(Cn2cc(C(=O)Nc3ccccc3C(=O)O)c3ccccc32)cc1` has an inhibition at 10 µM [1] of 53.9%.

In the case of `Cc1ccc2c(c1)c(C(=O)Nc1ccccc1C(=O)O)cn2Cc1ccccn1`, the inhibition at 10 µM [1] is reported as 46.8%.

`O=C(O)c1ccccc1NC(=O)c1cn(C(=O)c2ccccc2)c2ccccc12` was tested, and the inhibition at 10 µM [1] was 10.9%.

For `O=C(O)c1ccccc1NC(=O)c1cn(Cc2cccnn2)c2ccccc12`, the inhibition at 10 µM [1] was 10.4%.

For `O=C(O)c1ccccc1NC(=O)c1cn(Cc2ccccn2)c2ccccc12`, the inhibition at 10 µM [1] was 81.4%.

For `COc1ccc(/C=C/C(=O)Nc2ccccc2C(=O)O)cc1OC`, the Activity [3] was “Active” and the inhibition at 10 µM [1] was 44.9%.

Work on `Cc1ccc(Cn2cc(C(=O)Nc3ccccc3C(=O)O)c3ccccc32)cc1` yielded an inhibition at 10 µM [1] of 61%.

With `N#Cc1ccc2c(c1)c(C(=O)Nc1scnc1C(=O)O)cn2Cc1ccccn1` the inhibition in vivo at 10 mg/kg [4] was 25.8%, the “inhibition (INH)” value [5] was “Active” and the IC50 [2] was 1010 nM. For the same molecule, the inhibition in vivo at 10 mg/kg [6] was 22.3%, the “Ratio IC50” value [7] was 9.1 and the inhibition at 10 µM [1] was 48%.

In the case of `N#Cc1ccc2c(c1)c(C(=O)Nc1ccccc1C(=O)O)cn2Cc1ccccn1`, the inhibition at 10 µM [8] is reported as 33.5% and the inhibition at 10 µM [1] is reported as 60.7%.

`O=C(O)c1ccc(NC(=O)c2c[nH]c3ccccc23)cc1` was tested, and the inhibition at 10 µM [1] was 0.1%.

`O=C(O)c1ccccc1NC(=O)c1cn(Cc2ccc(Br)cc2)c2ccccc12` gave an inhibition at 10 µM [1] of 73.6%.

Molecule `O=C(O)c1ccccc1NC(=O)c1cn(Cc2cccc(F)c2)c2ccccc12` has an inhibition at 10 µM [1] of 48%.

For `O=C(O)c1ccccc1NC(=O)c1cn(Cc2ccc(F)cc2)c2ccccc12`, the inhibition at 10 µM [1] was 73.4%.

`N#Cc1ccc2c(C(=O)Nc3ccccc3C(=O)O)cn(Cc3ccccn3)c2c1` gave an inhibition at 10 µM [1] of 65.7%.

With `O=C(O)c1ccccc1NC(=O)c1cn(Cc2cscn2)c2ccccc12` the inhibition at 10 µM [1] was 64.4%.

`CC(C)(C)c1ccc(Cn2cc(C(=O)Nc3ccccc3C(=O)O)c3ccccc32)cc1` gave an inhibition at 10 µM [1] of -4.8%.

`O=C(O)c1ccccc1NC(=O)c1cn(Cc2cnccn2)c2ccccc12` was tested, and the inhibition at 10 µM [1] was 52.7%.

Molecule `O=C(O)c1ccccc1NC(=O)c1cn(Cc2ccccc2F)c2ccccc12` has an inhibition at 10 µM [1] of 40.7%.

`O=C(O)c1ccccc1NC(=O)c1cn(Cc2ccc(Cl)cc2)c2ccccc12` showed an inhibition at 10 µM [1] of 69.4%.
